Reference: patent publication US5543426A, “Use of certain 3,7-disubstituted indole compounds for treating depression or cognitive disorders” (priority 1990, dated 1996)

Legend:
Benzold Jarisch Reflex = assay: blockade of the Benzold Jarisch Reflex (method of Fozard); format: in vivo; details: read-out: ID50, blockade of the Benzold Jarisch Reflex
Experimental: Pharmacol., 326, 36-44 (1984). Example compound has an ID50 of 70 μg/kg.

5-HT3 binding sites = target: T1, 5-HT3 binding sites (Mus musculus, UniProt P23979); assay: binding to 5-HT3 binding sites, N1E-115 cells (method of Hoyer and Neijt)
T1 construct: endogenous in cells; host or cells: N1E-115
T1 sequence (P23979 24-489): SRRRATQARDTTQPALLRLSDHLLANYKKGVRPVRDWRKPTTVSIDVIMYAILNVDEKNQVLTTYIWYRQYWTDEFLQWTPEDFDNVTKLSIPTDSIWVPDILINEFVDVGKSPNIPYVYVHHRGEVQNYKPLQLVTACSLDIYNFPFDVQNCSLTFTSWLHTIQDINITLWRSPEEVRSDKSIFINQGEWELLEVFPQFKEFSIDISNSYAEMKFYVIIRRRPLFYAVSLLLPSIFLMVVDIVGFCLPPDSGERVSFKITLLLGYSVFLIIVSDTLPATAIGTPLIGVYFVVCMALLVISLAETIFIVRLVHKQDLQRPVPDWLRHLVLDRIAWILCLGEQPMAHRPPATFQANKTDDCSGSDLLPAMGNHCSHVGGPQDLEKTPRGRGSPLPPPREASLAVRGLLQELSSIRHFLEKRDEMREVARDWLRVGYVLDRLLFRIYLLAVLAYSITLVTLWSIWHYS
Excerpt: 1. their potent and selective binding properties to 5-HT3 binding sites, e.g. to N1E-115 cells measured according to the method disclosed by D. Hoyer and H.C. Neijt, Mol. Pharm., 33, 303-309.

gastric emptying in rats = assay: gastric emptying of glass spheres in rats; format: in vivo; details: Rattus norvegicus, ip, given 15 min before 25 glass spheres, emptying measured 5, 10, 15 and 30 min after, read-out: ED50, promoting effect on gastric emptying
Experimental: 2. their promoting effect on gastric emptying in rats as indicated in standard in vivo tests when administered i.p. at doses of about 0.01 to about 1 mg/kg. The compounds to be tested are administered 15 min. before the administration of 25 glass spheres and gastric emptying is measured 5, 10, 15 and 30 min. after administration of the spheres. Example compound has an ED50 of 0.2 mg/kg i.p.

mice = assay: social stress model: plasma corticosterone rise induced by an aggressive, inaccessible male mouse; format: in vivo; details: p.o., 0.1 to 1 mg/kg
Experimental: The compounds of the invention also reduce the plasma corticosterone rise induced in mice by the presence of an aggressive, but inaccessible male mouse. Compounds of the invention when given p.o. for 14 days at a dosage of from about 0.1 to 10 mg/kg restore the plasma corticosterone level to normal.
The Example compound is preferred.

`COc1cccc2c(C(=O)O[C@H]3C[C@H]4CC[C@@H](C3)N4C)c[nH]c12` [Example compound, 7-Methoxy-1H-indol-3-carboxylic acid-(1αH, 5αH)-8-methyl-8-aza-bicyclo3,2,1oct-3α-yl-ester] showed an ED50 (Benzold Jarisch Reflex) of 0.07 mg/kg, a Kd (5-HT3 binding sites) of 1.35 nM and an ED50 (gastric emptying in rats) of 0.2 mg/kg. The “stress-induced corticosterone concentration in plasma” value (mice) was “reduces the stress-induced corticosterone concentration in plasma”.
